From patent publication US20140187470A1 (Synergy Pharmaceuticals Inc., priority 2013, published 2014)
One block for each compound: values may come before it. Where a SMILES comes first, the peptide text is derived from it. Bridges are numbered along the chain shown (N, C = ends).

Key:
CaCo-2 cells = test: 3H-taurocholate (bile acid) absorption by CaCo-2 monolayer; type: cell-based, human; details: for Absorption of 3H-taurocholate (kinetics experiment): 16-day grown CaCo-2 monolayers, up to 60 minutes incubation; for Absorption of 3H-taurocholate (kinetics experiment) / Absorption of 3H-taurocholate (bar graph experiment): 30 minutes pre-incubation; for Absorption of 3H-taurocholate (bar graph experiment): CaCo-2 cells grown for 20 days, 60 minutes incubation, quadruplets
Experimental: (§1) CaCo-2 cell culture: CaCo-2, human colon carcinoma cells, were obtained from American Type Culture Collection (ATCC) and cultured in DMEM medium containing 10% fetal bovine serum, 1% penicillin-streptomycin, 2 mM L-glutamine, 1% non-essential-amino acids. Cells were fed fresh medium every third day and grown for 16-21 days to form completely differentiated monolayer. Fully differentiated CaCo-2 cells are known to express high density of GC-C receptors.
Preparation of ^3H-taurocholate Cocktail: Phosphatidyl choline was dissolved in ethanol to make 50 mM stock solution. Calculated volume of the stock solution of phosphatidyl choline was mixed with 3H-taurocholate in a plastic tube and dried under argon gas at 80° C. The dried material was dissolved in transport buffer to get the final concentration of phosphatidyl choline (0.5 mM) and of 3H-taurocholate 10 μCi/mL.
CaCo-2 cells were grown in 24-well plates for 16 days to allow complete monolayer formation and cell differentiation. Completely differentiated monolayers were then pre-incubated with 250 μL of the transport buffer (HEPES 25 mM, NaCl 120 mM, KCl 5.4 mM, CaCl2 1.8 mM and MgSO4, pH 7.5) containing either SP-304 alone or in combination with PDE inhibitors such as IBMX, SS and ZAP. The monolayers were pre-incubated with transport buffer containing either of the following: vehicle (control), 1 mM 8-bromo-cGMP, 500 μM SS, 500 μM ZAP, 1 μM SP-304, 0.1 μM SP-304+500 μM SS and 1 μM SP-304+500 μM ZAP. After the indicated pre-incubation time, 50 μL of ^3H-taurocholate (1 μCi) cocktail was added and cells were incubated for an additional 60 minutes, washed three times with ice cold PBS. Cells were lysed with 0.5 N NaOH for 4 hours and radioactivity in the lysate was counted in a scintillation counter.
16-day grown monolayers of CaCo-2 cells in 24-well plates were pre-incubated with transport buffer containing the compounds as indicated in the figure for 30 minutes. After the pre-incubation, 1 μCi of ^3H-taurocholate cocktail was added in each well and cells were further incubated for 60 minutes. Cells were washed three times with ice cold PBS and lysed with 0.5 N NaOH and lysates were counted for radioactivity in a scintillation counter. Results are expressed as an average of three determinations. Results on the x-axis were plotted in logarithmic scale.
After the pre-incubation, 1 μCi of ^3H-taurocholate cocktail was added in each well and cells were further incubated for 60 minutes. Cells were washed three times with ice cold PBS and lysed with 0.5 N NaOH and lysates were counted for radioactivity in a scintillation counter. This experiment was run in quadruplets and results are expressed as mean±SD.
The procedure used in this experiment was essentially the same except that a lower concentration of ZAP (250 μM) in combination experiments with SP-304.

GC-C receptors = target: T1, GC-C receptors (Homo sapiens, UniProt P25092); test: Cyclic GMP stimulation assay in CaCo-2 cells; type: cell-based; details: CaCo-2 monolayers; for Effect of PDE inhibitor on stimulation of cGMP production by SP-304: in combination with SP-304, 30 minutes
T1 construct: Fully differentiated CaCo-2 cells are known to express high density of GC-C receptors; host or cells: CaCo-2 human colon carcinoma cells, differentiated monolayers
Experimental: as §1
Cyclic GMP stimulation assay: Biological activity of the GCRA peptides was assayed as previously reported (5). Briefly, 16 days grown monolayers of CaCo-2 cells in 24-well plates were washed twice with 250 μl of DMEM containing 50 mM HEPES (pH 7.4), pre-incubated at 37° C. for 10 min with 250 μl of DMEM containing 50 mM HEPES (pH 7.4) and 1 mM isobutylmethylxanthine (IBMX), followed by incubation with GCRA peptides (0.1 nM to 10 μM) for 30 min. The medium was aspirated, and the reaction was terminated by the addition of 3% perchloric acid. Following centrifugation, and neutralization with 0.1 N NaOH, the supernatant was used directly for measurements of cGMP using an ELISA kit (Caymen Chemical, Ann Arbor, Mich.)
Monolayers were treated 500 μL of serum free DMEM for 30 minutes with either SP-304 alone or in combination with phosphodiesterase inhibitors such as, 3-isobutyl-1-methylxanthine (IBMX), sulindac sulfone (SS) and zaprinast (ZAP). After the incubation, monolayers were lysed with 250 μL of 3% perchloric acid. The lysate was neutralized with 0.1 N NaOH and used for ELISA to determine the concentration of cGMP. The assay procedure was essentially the same as described (5). […] Since CaCo-2 cells overexpress phosphodiesterases (PDE), GC-C agonists are used in combination with PDE inhibitors to measure the actual stimulatory effect of GC-C agonists.

[1] = In vitro proteolytic stability using simulated gastric fluid (SGF) digestion, HPLC analysis; type: in vitro ADME; details: 0 min vs 120 min, HPLC (FIG. 1B)
Experimental: FIG. 1B is a schematic representation of the results of HPLC chromatographic analyses of SP-304 samples after incubation with SGF at indicated times (0 min in the upper panel and 120 min in the lower panel). […] The arrows indicate the elution position of SP-304.
The stability of the GRCA peptide according to the invention is determined in the presence of simulated gastric fluid (SGF). GRCA peptide (final concentration of 8.5 mg/ml) is incubated in SGF (Proteose peptone (8.3 g/liter; Difco), D-Glucose (3.5 g/liter; Sigma), NaCl (2.05 g/liter; Sigma), KH2PO4 (0.6 g/liter; Sigma), CaCl2 (0.11 g/liter), KCl (0.37 g/liter; Sigma), Porcine bile (final 1× concentration 0.05 g/liter; Sigma) in PBS, Lysozyme (final 1× concentration 0.10 g/liter; Sigma) in PBS, Pepsin (final 1× concentration 0.0133 g/liter; Sigma) in PBS). SGF is made on the day of the experiment and the pH is adjusted to 2.0±0.1 using HCl or NaOH as necessary. After the pH adjustment, SGF is sterilized filtered with 0.22 μm membrane filters. SP-304 (final concentration of 8.5 mg/ml) is incubated in SGF at 37° C. for 0, 15, 30, 45, 60 and 120 min in triplicate aliquots. Following incubations, samples are snap frozen in dry ice then are stored in a −80° C. freezer until they are assayed in duplicate.

[2] = In vitro proteolytic stability using simulated intestinal fluid (SIF) digestion, HPLC analysis; type: in vitro ADME
Experimental: FIG. 2B is a schematic representation of the results of HPLC chromatographic analyses of SP304 samples after incubation with (A) heat inactivated SIF for 300 min or with (B) SIF for 120 min. […] Arrows indicate the position of SP-304.
Arrow indicates the elution position of SP-304 peptide. […] These new peptide peaks represent the possible degradation products of SP-304.
Arrow indicates the elution position of SP-332 peptide.
Arrows indicate the elution position of SP-333.
The stability of the GRCA peptide is also evaluated against digestion with simulated intestinal fluid (SIF). SIF solution was prepared by the method as described in the United States Pharmacopoeia, 24th edition, p2236. The recipe to prepare SIF solution is as described below. The SIF solution contains NaCl (2.05 g/liter; Sigma), KH2PO4 (0.6 g/liter; Sigma), CaCl2 (0.11 g/liter), KCl (0.37 g/liter; Sigma), and Pacreatin 10 mg/ml. The pH is adjusted to 6 and the solution is filter sterilized. A solution of SP-304 (8.5 mg/ml) is incubated in […] at 37° C. for 0, 30, 60, 90, 120, 150 and 300 min in triplicate aliquots. Following incubations, samples are removed and snap frozen with dry ice and stored in a −80° C. freezer until they are assayed in duplicate. F
The integrity of GRCA peptide is evaluated by HPLC by essentially using the method described for SGF digestion.

[3] = test system: patients with chronic idiopathic constipation (CIC); test: Plecanatide Phase IIb/III trial in patients with chronic idiopathic constipation; type: in vivo, human
Experimental: The randomized, double-blind, placebo-controlled, repeat-dose, dose-ranging study was designed to determine whether plecanatide could increase the number of complete spontaneous bowel movements (CSBM's) and impact other parameters such as stool consistency, straining and time to first bowel movement in patients with CIC. The 12-week study, which included 951 CIC patients at 113 clinical sites in the United States, evaluated 3 doses of plecanatide (0.3, 1.0, 3.0 mg) plus a placebo arm.

animal models = test: Animal models, oral administration of plecanatide; type: in vivo
[4] = simulated gastric fluid (SGF) with Pepsin (0.0133 g/liter), Lysozyme, Porcine bile, pH 2.0±0.1; details: 37° C., up to 120 min
[5] = Phase IIb/III clinical study, oral, CIC

T1 sequence (P25092 24-1073): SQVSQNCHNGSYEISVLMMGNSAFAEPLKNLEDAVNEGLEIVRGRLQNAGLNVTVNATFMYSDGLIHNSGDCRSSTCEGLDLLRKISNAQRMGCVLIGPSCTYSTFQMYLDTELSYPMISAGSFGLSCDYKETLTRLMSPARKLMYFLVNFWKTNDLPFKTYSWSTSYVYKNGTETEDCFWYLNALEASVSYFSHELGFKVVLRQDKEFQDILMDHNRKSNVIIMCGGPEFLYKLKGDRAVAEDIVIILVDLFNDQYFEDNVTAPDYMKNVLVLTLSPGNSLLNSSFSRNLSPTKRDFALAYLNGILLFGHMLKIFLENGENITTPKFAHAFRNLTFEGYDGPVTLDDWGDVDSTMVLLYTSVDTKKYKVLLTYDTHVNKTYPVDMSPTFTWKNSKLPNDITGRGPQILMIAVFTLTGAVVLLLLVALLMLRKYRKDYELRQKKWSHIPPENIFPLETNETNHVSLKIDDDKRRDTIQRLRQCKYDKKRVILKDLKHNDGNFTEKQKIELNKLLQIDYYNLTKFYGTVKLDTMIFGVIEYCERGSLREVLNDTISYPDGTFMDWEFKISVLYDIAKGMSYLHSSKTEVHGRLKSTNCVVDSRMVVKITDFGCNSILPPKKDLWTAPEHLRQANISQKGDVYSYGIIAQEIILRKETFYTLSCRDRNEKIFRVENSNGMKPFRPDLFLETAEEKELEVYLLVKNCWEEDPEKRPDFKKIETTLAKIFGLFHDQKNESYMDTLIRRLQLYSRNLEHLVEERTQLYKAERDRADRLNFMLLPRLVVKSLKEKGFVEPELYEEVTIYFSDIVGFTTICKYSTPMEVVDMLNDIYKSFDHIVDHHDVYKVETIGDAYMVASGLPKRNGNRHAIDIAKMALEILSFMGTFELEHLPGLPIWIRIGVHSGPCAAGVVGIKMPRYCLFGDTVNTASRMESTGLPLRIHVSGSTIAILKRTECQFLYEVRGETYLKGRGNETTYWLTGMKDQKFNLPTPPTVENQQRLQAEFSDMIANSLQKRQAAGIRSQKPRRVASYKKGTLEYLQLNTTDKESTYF

Compound: Nc1nc2c(nc(Br)n2[C@@H]2O[C@@H]3COP(=O)(O)O[C@H]3[C@H]2O)c(=O)[nH]1 [8-Br-cGMP, 8-bromo-cGMP, reference compound]
Absorption of 3H-taurocholate (kinetics experiment) (CaCo-2 cells): inhibited
Absorption of 3H-taurocholate (bar graph experiment) (CaCo-2 cells): inhibited

Compound: CC(C)Cn1c(=O)n(C)c(=O)c2[nH]cnc21 [IBMX, 3-isobutyl-1-methylxanthine]
Effect of PDE inhibitor on stimulation of cGMP production by SP-304 (GC-C receptors): synergistic effects

Compound: Asn^1-Asp^2-Glu^3-Cys^4-Glu^5-Leu^6-Cys^7-Val^8-Asn^9-Val^10-Ala^11-Cys^12-Thr^13-Gly^14-Cys^15-Leu^16
not cleaved [4]: major peak did not change after 120 min

Second part, led by results:

HPLC major peak after incubation with SGF [1]: resistant to SGF digestion
cGMP production by CaCo-2 cells in response to stimulation (GC-C receptors; 30 minutes): produced cGMP
HPLC peak after incubation with SIF for 60 min ([2]; 0 vs 60 min, HPLC (FIG. 7D)): completely vanished
Compound: CC(C)C[C@H](NC(=O)[C@@H]1CSSC[C@@H]2NC(=O)[C@H](CC(C)C)NC(=O)[C@H](CCC(=O)O)NC(=O)[C@@H](NC(=O)[C@H](CCC(=O)O)NC(=O)[C@H](CC(=O)O)NC(=O)[C@@H](N)CC(N)=O)CSSC[C@H](NC(=O)[C@H](C)NC(=O)[C@H](C(C)C)NC(=O)[C@H](CC(N)=O)NC(=O)[C@H](C(C)C)NC2=O)C(=O)N[C@@H]([C@@H](C)O)C(=O)NCC(=O)N1)C(=O)O [SP-304, Asn^1-Asp^2-Glu^3-Cys^4-Glu^5-Leu^6-Cys^7-Val^8-Asn^9-Val^10-Ala^11-Cys^12-Thr^13-Gly^14-Cys^15-Leu^16] (H-NDECELCVNVACTGCL-OH; disulfide 4-12, 7-15; N-terminus assumed)
HPLC peak after incubation with SIF for 120 min ([2]; 120 min, HPLC (FIG. 2B, 7E, 7F)): completely converted SP-304 into another peptide
Overall responder rate ([3]; 3 mg dose, 12-week treatment, CIC patients (placebo 10.7%), p=0.009): 19%
Mean increase in CSBMs over the 12-week treatment period ([3]; 3 mg dose, CIC patients, p<0.001): 2.13
Incidence of diarrhea ([3]; 3 mg, CIC patients (placebo incidence 1.3%)): 9.7%
Key secondary endpoints ([3]; Phase IIb/III clinical study, CIC patients): statistically significant improvements
Primary and key secondary endpoints of the study [3, 5]: met the primary and key secondary endpoints
Tolerability [3, 5]: well tolerated
GI inflammation (animal models): ameliorates GI inflammation
Intestinal secretion (animal models): promotes intestinal secretion
Absorption of 3H-taurocholate (kinetics experiment) (CaCo-2 cells): inhibited
Absorption of 3H-taurocholate (bar graph experiment) (CaCo-2 cells): inhibited
Inhibition in absorption of 3H-taurocholate, SP-304 alone (CaCo-2 cells; SP-304 0.1 μM alone): did not produce much inhibition
Inhibition of 3H-taurocholate absorption, SP-304 in combination with ZAP (CaCo-2 cells; SP-304 0.1 μM in combination with ZAP (250 μM)): greater effect on inhibition

Effect of PDE inhibitor on stimulation of cGMP production by SP-304 (GC-C receptors): synergistic effects
Compound: CC1=C(CC(=O)O)c2cc(F)ccc2/C1=C\c1ccc(S(C)(=O)=O)cc1 [SS, sulindac sulfone]

Production of cGMP among the PDE inhibitors (GC-C receptors; in combination with SP-304): maximum production of cGMP
Effect of PDE inhibitor on stimulation of cGMP production by SP-304 (GC-C receptors): synergistic effects
Compound: CCCOc1ccccc1-c1nc2nn[nH]c2c(=O)[nH]1 [ZAP, zaprinast]
